Experimental findings from article PMC9599461, “Stereoselectivity in the Membrane Transport of Phenylethylamine Derivatives by Human Monoamine Transporters and Organic Cation Transporters 1, 2, and 3” (Biomolecules, 2022) are described below.

The target of series [1] is NET (Homo sapiens, UniProt P23975). Put plainly: Stereoselective uptake into NET-overexpressing HEK293 cells.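 For all read-outs here: intracellular enantiomers quantified in cell lysates by chiral HPLC-MS/MS after a 2 min substrate incubation, with uptake normalized to total cellular protein.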 The settings on record: for Clint ± SEM / Stereoselectivity Vmax / Stereoselectivity Km: NET; for Clint ± SEM: quotient of vmax over Km; for Stereoselectivity Vmax / Stereoselectivity Km: ratio between enantiomers; for Stereoselectivity Vmax: given as for (R) or for 1; for Stereoselectivity Km: given as for (R) or for 1 (first-eluting); for selectivity ratio at 2 min: human, HEK293 cells stably overexpressing human NET.

The target in series [2] is DAT (Homo sapiens, UniProt Q01959). Put plainly: Stereoselective uptake into DAT-overexpressing HEK293 cells.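 For all read-outs here: intracellular accumulation measured by chiral HPLC-MS/MS in stably transfected HEK293 cells, normalized to total protein.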 Conditions: for Clint ± SEM / Stereoselectivity Vmax / Stereoselectivity Km: DAT; for Clint ± SEM: quotient of vmax over Km; for Stereoselectivity Vmax / Stereoselectivity Km: ratio between enantiomers; for Stereoselectivity Vmax: given as for (R) or for 1; for Stereoselectivity Km: given as for (R) or for 1 (first-eluting); for selectivity ratio at 2 min: human, HEK293 cells stably overexpressing human DAT.

Series [3] has as its target SERT (Homo sapiens, UniProt P31645). Description: Stereoselective uptake into SERT-overexpressing HEK293 cells.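 For all read-outs here: uptake into HEK293 cells stably expressing human SERT over 2 min, enantiomers measured in cell lysate by chiral HPLC-MS/MS, normalized to total protein.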 Conditions: for Clint ± SEM / Stereoselectivity Vmax / Stereoselectivity Km: SERT; for Clint ± SEM: quotient of vmax over Km; for Stereoselectivity Vmax / Stereoselectivity Km: ratio between enantiomers; for Stereoselectivity Vmax: given as for (R) or for 1; for Stereoselectivity Km: given as for (R) or for 1 (first-eluting); for selectivity ratio at 2 min: human, HEK293 cells stably overexpressing human SERT.

The target of series [4] is T1, OCT1 (Homo sapiens, UniProt O15245).
T1 sequence (O15245 1-554): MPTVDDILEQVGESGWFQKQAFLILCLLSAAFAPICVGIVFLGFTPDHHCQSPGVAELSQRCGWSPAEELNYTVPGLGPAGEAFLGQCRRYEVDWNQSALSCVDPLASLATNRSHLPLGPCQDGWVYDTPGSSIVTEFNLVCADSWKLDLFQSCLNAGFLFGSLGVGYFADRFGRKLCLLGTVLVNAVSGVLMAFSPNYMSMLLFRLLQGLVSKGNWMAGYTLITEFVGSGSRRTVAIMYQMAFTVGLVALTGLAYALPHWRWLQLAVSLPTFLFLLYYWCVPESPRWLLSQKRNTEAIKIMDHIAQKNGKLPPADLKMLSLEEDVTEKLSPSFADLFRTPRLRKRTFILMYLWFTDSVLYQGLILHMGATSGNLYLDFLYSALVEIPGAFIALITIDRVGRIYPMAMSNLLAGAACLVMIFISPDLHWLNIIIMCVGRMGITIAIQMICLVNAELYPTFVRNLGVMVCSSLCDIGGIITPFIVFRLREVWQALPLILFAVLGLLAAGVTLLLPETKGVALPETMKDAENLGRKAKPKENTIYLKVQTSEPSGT
Description: Stereoselective uptake into OCT1-overexpressing HEK293 cells.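 For all read-outs here: enantiomers quantified inside cells by chiral HPLC-MS/MS, uptake normalized to total protein from bicinchoninic acid assay, substrates applied in HBSS+ buffer.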 The settings on record: OCT1; for Clint ± SEM: quotient of vmax over Km; for selectivity ratio at 2 min: human, ratio between enantiomers.

The target of series [5] is T2, OCT3 (Homo sapiens, UniProt O75751).
T2 sequence (O75751 1-556): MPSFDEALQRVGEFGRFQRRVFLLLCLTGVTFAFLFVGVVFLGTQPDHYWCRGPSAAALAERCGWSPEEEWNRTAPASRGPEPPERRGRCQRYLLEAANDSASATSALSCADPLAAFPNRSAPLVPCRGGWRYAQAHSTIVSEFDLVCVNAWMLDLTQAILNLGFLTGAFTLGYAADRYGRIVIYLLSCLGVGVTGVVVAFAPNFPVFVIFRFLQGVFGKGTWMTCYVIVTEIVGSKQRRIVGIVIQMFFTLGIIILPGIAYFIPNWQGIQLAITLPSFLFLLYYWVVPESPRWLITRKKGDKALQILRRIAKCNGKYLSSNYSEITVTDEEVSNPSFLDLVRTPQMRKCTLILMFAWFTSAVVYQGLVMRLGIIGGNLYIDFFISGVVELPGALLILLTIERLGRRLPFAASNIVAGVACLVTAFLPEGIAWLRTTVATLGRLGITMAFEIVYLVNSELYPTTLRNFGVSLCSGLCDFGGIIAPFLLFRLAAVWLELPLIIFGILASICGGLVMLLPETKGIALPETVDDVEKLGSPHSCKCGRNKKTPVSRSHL
Put plainly: Stereoselective uptake into OCT3-overexpressing HEK293 cells.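 For all read-outs here: intracellular accumulation in HEK293 cells measured by chiral HPLC-MS/MS after a 2 min substrate exposure at 37 °C, uptake normalized to total protein (bicinchoninic acid assay).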 The settings on record: for Clint ± SEM / Stereoselectivity Vmax: OCT3; for Clint ± SEM: quotient of vmax over Km; for Stereoselectivity Vmax: ratio between enantiomers, given as for (S) or for 2; for selectivity ratio at 2 min: human, HEK293 cells stably overexpressing human OCT3.

Series [6] addresses T3, OCT2 (Homo sapiens, UniProt O15244).
T3 sequence (O15244 1-555 S270A): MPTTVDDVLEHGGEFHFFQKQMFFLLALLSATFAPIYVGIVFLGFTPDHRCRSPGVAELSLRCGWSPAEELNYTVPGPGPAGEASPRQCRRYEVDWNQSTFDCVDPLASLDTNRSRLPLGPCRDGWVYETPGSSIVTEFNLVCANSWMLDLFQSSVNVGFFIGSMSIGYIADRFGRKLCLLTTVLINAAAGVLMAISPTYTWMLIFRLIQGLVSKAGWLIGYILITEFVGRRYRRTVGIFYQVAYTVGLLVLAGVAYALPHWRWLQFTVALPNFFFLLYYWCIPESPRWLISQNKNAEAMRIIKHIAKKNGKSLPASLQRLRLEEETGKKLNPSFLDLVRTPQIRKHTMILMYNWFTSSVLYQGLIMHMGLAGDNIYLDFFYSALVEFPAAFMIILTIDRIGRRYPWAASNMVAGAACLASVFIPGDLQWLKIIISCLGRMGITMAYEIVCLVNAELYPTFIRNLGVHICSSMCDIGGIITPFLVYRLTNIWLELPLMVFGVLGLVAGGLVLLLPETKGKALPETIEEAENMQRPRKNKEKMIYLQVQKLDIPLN
Description: Stereoselective uptake into OCT2 (wild-type)-overexpressing HEK293 cells. The settings on record: OCT2; for Clint ± SEM: quotient of vmax over Km; for selectivity ratio at 2 min: human, ratio between enantiomers.

The test system of series [7] is OCT2 wild-type versus A270S variant. Description: Stereoselective uptake into OCT2 A270S variant-overexpressing HEK293 cells.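 Note: uptake into HEK293 cells stably overexpressing human OCT2 variants, intracellular enantiomers quantified by chiral HPLC-MS/MS and normalized to total protein.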 The settings on record: human.
Substrate in series [8]: CNCC(O)c1ccc(O)c(OC)c1
Put plainly: cells, lysate or membranes. The settings on record: other: HEK293 cells overexpressing human OCT2; racemic substrate, two minutes; net uptake minus empty vector control; 37.0 °C.

Substrate in series [9]: CNCC(O)c1ccccc1
Description: cells, lysate or membranes. The settings on record: other: HEK293 cells overexpressing human OCT2; racemic substrate, two minutes; net uptake minus empty vector control; 37.0 °C.

Substrate in series [10]: CNC[C@@H](O)c1ccc(O)cc1
Put plainly: cells, lysate or membranes. Conditions: other: HEK293 cells overexpressing human OCT2; racemic substrate, two minutes; net uptake minus empty vector control; 37.0 °C.

Substrate in series [11]: CNC[C@@H](O)c1cccc(O)c1
Put plainly: cells, lysate or membranes. Conditions: other: HEK293 cells overexpressing human OCT2; racemic substrate, two minutes; net uptake minus empty vector control; 37.0 °C.

Substrate in series [12]: CNC[C@H](O)c1cccc(O)c1
Put plainly: cells, lysate or membranes. The settings on record: other: HEK293 cells overexpressing human OCT2; racemic substrate, two minutes; net uptake minus empty vector control; 37.0 °C.

Substrate in series [13]: COc1cc(C(O)CN)ccc1O
Put plainly: cells, lysate or membranes. Conditions: other: HEK293 cells overexpressing human OCT2; racemic substrate, two minutes; net uptake minus empty vector control; 37.0 °C.

Substrate in series [14]: NCC(O)c1cccc(O)c1
Put plainly: cells, lysate or membranes. Conditions: other: HEK293 cells overexpressing human OCT2; racemic substrate, two minutes; net uptake minus empty vector control; 37.0 °C.

Substrate in series [15]: NC[C@H](O)c1ccc(O)cc1
Put plainly: cells, lysate or membranes. The settings on record: other: HEK293 cells overexpressing human OCT2; racemic substrate, two minutes; net uptake minus empty vector control; 37.0 °C.

Substrate in series [16]: [H][C@](O)(CNC)c1ccc(O)cc1
Put plainly: cells, lysate or membranes. The settings on record: other: HEK293 cells overexpressing human OCT2; racemic substrate, two minutes; net uptake minus empty vector control; 37.0 °C.

[17] abbreviates: HEK293 cells stably overexpressing human OCT1, Stereoselectivity ClInt, given as for (R) or for 1 (also 1.00-fold for 1/2).
Where [18] appears, read: HEK293 cells stably overexpressing human OCT1, Stereoselectivity Km, given as for (R) or for 1 (first-eluting).
The mark [19] stands for this setting: HEK293 cells stably overexpressing human OCT1, Stereoselectivity Vmax, given as for (R) or for 1.
[20] abbreviates: HEK293 cells stably overexpressing human wild-type OCT2, Stereoselectivity ClInt, given as for (R) or for 1.
[21] abbreviates: HEK293 cells stably overexpressing human wild-type OCT2, Stereoselectivity Km, given as for (R) or for 1 (first-eluting).
The mark [22] stands for this setting: HEK293 cells stably overexpressing human wild-type OCT2, Stereoselectivity Vmax, given as for (R) or for 1.

Several values for one entry are separate records, joined by “and”; a condition that tells them apart may be missing. Equal entries are not always repeated.

Chain of DAT (Q01959 whole entry): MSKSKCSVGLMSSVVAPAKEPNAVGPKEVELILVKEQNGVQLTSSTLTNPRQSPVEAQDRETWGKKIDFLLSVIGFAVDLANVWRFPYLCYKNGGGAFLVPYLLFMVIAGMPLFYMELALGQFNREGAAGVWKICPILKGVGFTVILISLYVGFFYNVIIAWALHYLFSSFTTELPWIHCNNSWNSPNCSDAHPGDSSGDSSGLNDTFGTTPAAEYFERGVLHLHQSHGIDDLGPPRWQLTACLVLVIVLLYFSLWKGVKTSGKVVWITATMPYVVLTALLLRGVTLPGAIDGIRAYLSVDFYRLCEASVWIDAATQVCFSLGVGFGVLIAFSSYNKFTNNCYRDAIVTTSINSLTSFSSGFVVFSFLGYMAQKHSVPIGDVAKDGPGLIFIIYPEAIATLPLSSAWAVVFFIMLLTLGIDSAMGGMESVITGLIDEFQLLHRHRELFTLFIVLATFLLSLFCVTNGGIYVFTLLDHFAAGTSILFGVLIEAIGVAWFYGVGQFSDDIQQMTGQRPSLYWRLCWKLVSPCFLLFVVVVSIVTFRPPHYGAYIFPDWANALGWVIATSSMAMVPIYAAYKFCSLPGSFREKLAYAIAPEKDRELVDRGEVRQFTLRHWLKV
Chain of SERT (P31645 whole entry): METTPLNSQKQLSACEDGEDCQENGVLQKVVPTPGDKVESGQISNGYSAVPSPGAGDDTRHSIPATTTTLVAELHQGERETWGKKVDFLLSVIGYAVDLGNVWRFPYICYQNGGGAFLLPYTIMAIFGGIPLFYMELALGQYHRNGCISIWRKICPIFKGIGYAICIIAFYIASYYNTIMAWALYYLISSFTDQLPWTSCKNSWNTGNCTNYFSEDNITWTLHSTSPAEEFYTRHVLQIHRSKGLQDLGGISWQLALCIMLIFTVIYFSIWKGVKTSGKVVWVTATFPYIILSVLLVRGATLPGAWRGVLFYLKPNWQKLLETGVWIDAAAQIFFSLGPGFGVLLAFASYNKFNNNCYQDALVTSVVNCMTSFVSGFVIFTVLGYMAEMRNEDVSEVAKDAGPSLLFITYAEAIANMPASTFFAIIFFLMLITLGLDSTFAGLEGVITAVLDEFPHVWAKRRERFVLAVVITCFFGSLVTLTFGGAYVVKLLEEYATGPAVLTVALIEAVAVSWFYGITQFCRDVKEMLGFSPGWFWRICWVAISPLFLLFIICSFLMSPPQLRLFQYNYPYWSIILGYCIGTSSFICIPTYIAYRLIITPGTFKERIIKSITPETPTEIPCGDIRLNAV
Chain of NET (P23975 whole entry): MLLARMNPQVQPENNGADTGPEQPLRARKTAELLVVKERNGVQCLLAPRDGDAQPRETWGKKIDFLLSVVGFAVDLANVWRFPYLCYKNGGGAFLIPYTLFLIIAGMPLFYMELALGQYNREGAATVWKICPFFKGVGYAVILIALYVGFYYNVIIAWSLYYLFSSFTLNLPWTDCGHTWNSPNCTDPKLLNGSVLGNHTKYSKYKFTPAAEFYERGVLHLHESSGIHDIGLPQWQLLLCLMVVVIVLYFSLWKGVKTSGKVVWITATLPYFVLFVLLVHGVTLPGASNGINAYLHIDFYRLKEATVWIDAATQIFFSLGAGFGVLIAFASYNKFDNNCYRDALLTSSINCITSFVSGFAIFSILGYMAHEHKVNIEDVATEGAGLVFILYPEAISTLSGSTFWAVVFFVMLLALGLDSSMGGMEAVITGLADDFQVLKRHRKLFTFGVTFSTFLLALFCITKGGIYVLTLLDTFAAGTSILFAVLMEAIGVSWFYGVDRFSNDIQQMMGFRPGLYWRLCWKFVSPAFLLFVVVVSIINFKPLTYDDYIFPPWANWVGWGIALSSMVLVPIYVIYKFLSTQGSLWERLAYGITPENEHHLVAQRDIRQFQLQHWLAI

With `NC[C@@H](O)c1ccc(O)cc1` [(S)-Octopamine], the “Clint ± SEM” value in series [1] is reported as 198 mL × g Protein^−1 × min^−1; in series [2], 100 mL × g Protein^−1 × min^−1; in series [3] it was 2.42 mL × g Protein^−1 × min^−1; in series [4], 4.32 mL × g Protein^−1 × min^−1; in [5] it was 53.4 mL × g Protein^−1 × min^−1; in series [6] it was 30.2 mL × g Protein^−1 × min^−1. For the same molecule, the “Stereoselectivity Vmax” value in series [1] came to 1.30 fold; in series [2], 1.05 fold; in [3] it was 2.38 fold; in [5] it was 1.10 fold. Further, the figures for the “Stereoselectivity Km” value in series [1], in series [2] and in [3] were 1.55 fold, 1.05 fold and 1.39 fold, respectively. Moreover, the selectivity ratio at 2 min was found to be 1.19 in [1]; 1 in series [2]; 1.71 in series [3]; 1.05 in [4] (setting [17]); 1.04 in [4] (setting [18]); 1.09 in series [4] (setting [19]). Also, the selectivity ratio at 2 min in series [5] was 1.38; in series [6] (setting [20]) it was 1.31; in series [6] (setting [21]) it was 1.63; in series [6] (setting [22]), 2.14. Besides, the selectivity ratio at 2 min, 100 μM in [7] amounted to 1.17.

For the molecule `NC[C@H](O)c1ccc(O)cc1` [(R)-Octopamine], the “Clint ± SEM” value in series [1] was 166 mL × g Protein^−1 × min^−1; in series [2], 100 mL × g Protein^−1 × min^−1; in [3], 4.14 mL × g Protein^−1 × min^−1; in series [4], 4.53 mL × g Protein^−1 × min^−1; in series [5], 38.8 mL × g Protein^−1 × min^−1; in series [6], 39.6 mL × g Protein^−1 × min^−1. Also, the “Stereoselectivity Vmax” value in [1] is recorded as 1.30 fold; in series [2], 1.05 fold; in series [3], 2.38 fold; in series [5] it was 1.10 fold. Besides, the figures for the “Stereoselectivity Km” value in series [1], in series [2] and in [3] were 1.55 fold, 1.05 fold and 1.39 fold, respectively. Further, the selectivity ratio at 2 min in series [1] was determined as 1.19; in series [2] it was 1; in [3] it was 1.71; in series [4] (setting [17]), 1.05; in series [4] (setting [18]), 1.04; in [4] (setting [19]) it was 1.09. In addition, the selectivity ratio at 2 min in series [5] was 1.38; in series [6] (setting [20]) it was 1.31; in series [6] (setting [21]) it was 1.63; in series [6] (setting [22]) it was 2.14. The selectivity ratio at 2 min, 100 μM in series [7] was found to be 1.2.

B1: OCT2 (Homo sapiens; S270A) (protein)
chain: T3 sequence (O15244 1-555 S270A)
Take B1: the Km in [8] is 54.7 µM and 68.1 µM; in [9], 12.8 µM and 19.3 µM; in series [10], 214 µM; in series [11], 112 µM; in [12] it was 212 µM; in [13], 464 µM and 613 µM. Also, the Km is 911 µM and 582 µM in series [14]; 636 µM in [15]; 443 µM in series [16]. Besides, the Vmax in series [9] is 329 pmol × mg Protein^−1 × min^−1 and 261 pmol × mg Protein^−1 × min^−1; in series [10] it was 5307 pmol × mg Protein^−1 × min^−1; in [11], 3068 pmol × mg Protein^−1 × min^−1; in [12], 6263 pmol × mg Protein^−1 × min^−1; in series [13], 2747 pmol × mg Protein^−1 × min^−1 and 5665 pmol × mg Protein^−1 × min^−1; in [14], 33143 pmol × mg Protein^−1 × min^−1 and 15157 pmol × mg Protein^−1 × min^−1. Also, the Vmax in series [15] is 25182 pmol × mg Protein^−1 × min^−1; in [16], 10877 pmol × mg Protein^−1 × min^−1.
